Results as given in PubChem BioAssay AID1963448 (Molecular Pharmacology Branch, DTP, NCI, 2024).
pIC50: −log10 of the molar value. Values belong to the compound of their own block, whether it stands above or below them.

Tested on: 616215-338-R-J1-PDC complex spheroid growth, % test/control
Assay: Anticancer human tumor 616215-338-R-J1-PDC patient-derived colon adenocarcinoma cell line growth inhibition [Asc]
Conditions: for pIC50: curve of first compound; for viability, T/C: stronger effect = lower value
Method in brief: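 Concentration series start at each agent's clinical Cmax, or at 10 microM when none is established, and drop in half-log steps; agents are applied alone or together to complex spheroids built with HUVEC and hMSC.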

[1] = second compound 0.00316 µM, first compound 0.0316 µM
[2] = second compound 0.00316 µM, first compound 0.1 µM
[3] = second compound 0.00316 µM, first compound 0.316 µM
[4] = second compound 0.00316 µM, first compound 1 µM
[5] = second compound 0.00316 µM, first compound 3.16 µM
[6] = second compound 0.00316 µM, first compound 10 µM
[7] = second compound 0.01 µM, first compound 0.0316 µM
[8] = second compound 0.01 µM, first compound 0.1 µM
[9] = second compound 0.01 µM, first compound 0.316 µM
[10] = second compound 0.01 µM, first compound 1 µM
[11] = second compound 0.01 µM, first compound 3.16 µM
[12] = second compound 0.01 µM, first compound 10 µM
[13] = second compound 0.0316 µM, first compound 0.0316 µM
[14] = second compound 0.0316 µM, first compound 0.1 µM
[15] = second compound 0.0316 µM, first compound 0.316 µM
[16] = second compound 0.0316 µM, first compound 1 µM
[17] = second compound 0.0316 µM, first compound 3.16 µM
[18] = second compound 0.0316 µM, first compound 10 µM
[19] = second compound 0.1 µM, first compound 0.0316 µM
[20] = second compound 0.1 µM, first compound 0.1 µM
[21] = second compound 0.1 µM, first compound 0.316 µM
[22] = second compound 0.1 µM, first compound 1 µM
[23] = second compound 0.1 µM, first compound 3.16 µM
[24] = second compound 0.1 µM, first compound 10 µM
[25] = second compound 0.316 µM, first compound 0.0316 µM
[26] = second compound 0.316 µM, first compound 0.1 µM
[27] = second compound 0.316 µM, first compound 0.316 µM
[28] = second compound 0.316 µM, first compound 1 µM
[29] = second compound 0.316 µM, first compound 3.16 µM
[30] = second compound 0.316 µM, first compound 10 µM
[31] = second compound 1 µM, first compound 0.0316 µM
[32] = second compound 1 µM, first compound 0.1 µM
[33] = second compound 1 µM, first compound 0.316 µM
[34] = second compound 1 µM, first compound 1 µM
[35] = second compound 1 µM, first compound 3.16 µM
[36] = second compound 1 µM, first compound 10 µM
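Also: spheroids exposed to agents for seven days before readout.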
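For viability, T/C in this document: 100% = DMSO vehicle control viability.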

pIC50 (second compound 0.00316 µM): 5.64
pIC50 (second compound 0.01 µM): 5.60
pIC50 (second compound 0.0316 µM): 5.42
pIC50 (second compound 0.1 µM): 5.63
pIC50 (second compound 0.316 µM): 5.57
pIC50 (second compound 1 µM): 5.68
Structure (SMILES): C#Cc1c(F)ccc2cc(O)cc(-c3ncc4c(N5CC6CCC(C5)N6)nc(OCC56CCCN5CC(F)C6)nc4c3F)c12 (centres undefined) + CNC(C)C(=O)NC1CN(S(=O)(=O)c2cccc(S(=O)(=O)N3CCC4CCC(C(=O)NC(c5ccccc5)c5ccccc5)N4C(=O)C(NC(=O)C(C)NC)C3)c2)CCC2CCC(C(=O)NC(c3ccccc3)c3ccccc3)N2C1=O
viability, T/C [1]: 94.8%
viability, T/C [2]: 104%
viability, T/C [3]: 95.6%
viability, T/C [4]: 100%
viability, T/C [5]: 30.6%
viability, T/C [6]: 6.11%
viability, T/C [7]: 101%
viability, T/C [8]: 99.3%
viability, T/C [9]: 104%
viability, T/C [10]: 97.6%
viability, T/C [11]: 37.4%
viability, T/C [12]: 5.11%
viability, T/C [13]: 100%
viability, T/C [14]: 95.7%
viability, T/C [15]: 99.9%
viability, T/C [16]: 104%
viability, T/C [17]: 57.1%
viability, T/C [18]: 9.6%
viability, T/C [19]: 90.9%
viability, T/C [20]: 102%
viability, T/C [21]: 105%
viability, T/C [22]: 89.4%
viability, T/C [23]: 35.7%
viability, T/C [24]: 4.68%
viability, T/C [25]: 98.7%
viability, T/C [26]: 102%
viability, T/C [27]: 109%
viability, T/C [28]: 89.9%
viability, T/C [29]: 44.2%
viability, T/C [30]: 6.83%
viability, T/C [31]: 106%
viability, T/C [32]: 86%
viability, T/C [33]: 102%
viability, T/C [34]: 104%
viability, T/C [35]: 22.4%
viability, T/C [36]: 3.39%

pIC50 (second compound 0.00316 µM): 6.76
pIC50 (second compound 0.01 µM): 6.79
pIC50 (second compound 0.0316 µM): 6.81
pIC50 (second compound 0.1 µM): 7.28
pIC50 (second compound 0.316 µM): 6.61
pIC50 (second compound 1 µM): 6.88
Structure (SMILES): C=C(F)C(=O)N1CCN(c2nc(OCC3CCCN3C)nc3c2CCN(c2cccc4cccc(Cl)c24)C3)CC1CC#N (centres undefined) + CNC(C)C(=O)NC1CN(S(=O)(=O)c2cccc(S(=O)(=O)N3CCC4CCC(C(=O)NC(c5ccccc5)c5ccccc5)N4C(=O)C(NC(=O)C(C)NC)C3)c2)CCC2CCC(C(=O)NC(c3ccccc3)c3ccccc3)N2C1=O
viability, T/C [1]: 61%
viability, T/C [2]: 53.5%
viability, T/C [3]: 43.7%
viability, T/C [4]: 23.7%
viability, T/C [5]: 1.09%
viability, T/C [6]: 0.18%
viability, T/C [7]: 64.8%
viability, T/C [8]: 53.1%
viability, T/C [9]: 41.4%
viability, T/C [10]: 26.3%
viability, T/C [11]: 0.82%
viability, T/C [12]: 2.38%
viability, T/C [13]: 65.3%
viability, T/C [14]: 43.8%
viability, T/C [15]: 47.5%
viability, T/C [16]: 21.2%
viability, T/C [17]: 0.88%
viability, T/C [18]: 0.16%
viability, T/C [19]: 54.9%
viability, T/C [20]: 43.8%
viability, T/C [21]: 39.4%
viability, T/C [22]: 23.5%
viability, T/C [23]: 0.85%
viability, T/C [24]: 1.36%
viability, T/C [25]: 56.5%
viability, T/C [26]: 58.4%
viability, T/C [27]: 47.7%
viability, T/C [28]: 13.9%
viability, T/C [29]: 1.16%
viability, T/C [30]: 0.18%
viability, T/C [31]: 60%
viability, T/C [32]: 52%
viability, T/C [33]: 38.8%
viability, T/C [34]: 15.7%
viability, T/C [35]: 1.42%
viability, T/C [36]: 0.21%
